*1 amine or outer side, *2 acyl side, *3 side chain or, on linkers, in order; H or OH if unused. Where a SMILES comes first, the peptide text is derived from it. [ ]: non-standard residue; d: D form. X3 = CC(=O)N[C@@H]1[C@@H](O)[C@H](O)[C@@H](CO)O[C@H]1NC(=N)NCCC[C@H](N[*:1])C(=O)[*:2]; X4 = N=C(NCCC[C@H](N[*:1])C(=O)[*:2])N[C@@H]1O[C@H](CO)[C@H](O)[C@H](O)[C@H]1O
Test: Cytotoxicity against C57BL/6 mouse Pre-Osteoblast cells assessed as cell death upto 5 uM incubated for 4 days by CCK-8 assay
Type: toxicity, cell-based
Conditions: 96 h, time 4 day

Structure (SMILES) | Activity
CC[C@H](C)[C@H](NC(=O)[C@H](CCC(=O)O)NC(=O)[C@H](CO)NC(=O)[C@@H](NC(=O)[C@H](CO)NC(C)=O)C(C)C)C(=O)N[C@@H](CCC(N)=O)C(=O)N[C@@H](CC(C)C)C(=O)N[C@@H](CCSC)C(=O)N[C@@H](Cc1cnc[nH]1)C(=O)N[C@@H](CC(N)=O)C(=O)N[C@@H](CC(C)C)C(=O)NCC(=O)N[C@@H](CCCCN)C(=O)N[C@@H](Cc1cnc[nH]1)C(=O)N[C@@H](CC(C)C)C(=O)N[C@@H](CC(N)=O)C(=O)N[C@@H](CO)C(=O)N[C@@H](CCSC)C(=O)N[C@@H](CCC(=O)O)C(=O)N[C@@H](CCCNC(=N)N)C(=O)N[C@H](C(=O)N[C@@H](CCC(=O)O)C(=O)N[C@@H](Cc1c[nH]c2ccccc12)C(=O)N[C@@H](CC(C)C)C(=O)N[C@@H](CCCNC(=N)N[C@@H]1O[C@H](CO)[C@@H](O)[C@H]1O)C(=O)N[C@@H](CCCCN)C(=O)N[C@@H](CCCCN)C(=O)N[C@@H](CC(C)C)C(=O)N[C@@H](CCC(N)=O)C(=O)N[C@@H](CC(=O)O)C(=O)N[C@H](C(=O)N[C@@H](Cc1cnc[nH]1)C(=O)N[C@@H](CC(N)=O)C(=O)N[C@@H](Cc1ccccc1)C(N)=O)C(C)C)C(C)C | Non-Toxic
CC[C@H](C)[C@H](NC(=O)[C@H](CCC(=O)O)NC(=O)[C@H](CO)NC(=O)[C@@H](NC(=O)[C@H](CO)NC(C)=O)C(C)C)C(=O)N[C@@H](CCC(N)=O)C(=O)N[C@@H](CC(C)C)C(=O)N[C@@H](CCSC)C(=O)N[C@@H](Cc1cnc[nH]1)C(=O)N[C@@H](CC(N)=O)C(=O)N[C@@H](CC(C)C)C(=O)NCC(=O)N[C@@H](CCCCN)C(=O)N[C@@H](Cc1cnc[nH]1)C(=O)N[C@@H](CC(C)C)C(=O)N[C@@H](CC(N)=O)C(=O)N[C@@H](CO)C(=O)N[C@@H](CCSC)C(=O)N[C@@H](CCC(=O)O)C(=O)N[C@@H](CCCNC(=N)N[C@@H]1O[C@H](CO)[C@@H](O)[C@H](O)[C@H]1NC(C)=O)C(=O)N[C@H](C(=O)N[C@@H](CCC(=O)O)C(=O)N[C@@H](Cc1c[nH]c2ccccc12)C(=O)N[C@@H](CC(C)C)C(=O)N[C@@H](CCCNC(=N)N)C(=O)N[C@@H](CCCCN)C(=O)N[C@@H](CCCCN)C(=O)N[C@@H](CC(C)C)C(=O)N[C@@H](CCC(N)=O)C(=O)N[C@@H](CC(=O)O)C(=O)N[C@H](C(=O)N[C@@H](Cc1cnc[nH]1)C(=O)N[C@@H](CC(N)=O)C(=O)N[C@@H](Cc1ccccc1)C(N)=O)C(C)C)C(C)C | Non-Toxic
CC[C@H](C)[C@H](NC(=O)[C@H](CCC(=O)O)NC(=O)[C@H](CO)NC(=O)[C@@H](NC(=O)[C@H](CO)NC(C)=O)C(C)C)C(=O)N[C@@H](CCC(N)=O)C(=O)N[C@@H](CC(C)C)C(=O)N[C@@H](CCSC)C(=O)N[C@@H](Cc1cnc[nH]1)C(=O)N[C@@H](CC(N)=O)C(=O)N[C@@H](CC(C)C)C(=O)NCC(=O)N[C@@H](CCCCN)C(=O)N[C@@H](Cc1cnc[nH]1)C(=O)N[C@@H](CC(C)C)C(=O)N[C@@H](CC(N)=O)C(=O)N[C@@H](CO)C(=O)N[C@@H](CCSC)C(=O)N[C@@H](CCC(=O)O)C(=O)N[C@@H](CCCNC(=N)N[C@@H]1O[C@H](CO)[C@H](O)[C@H](O)[C@H]1O)C(=O)N[C@H](C(=O)N[C@@H](CCC(=O)O)C(=O)N[C@@H](Cc1c[nH]c2ccccc12)C(=O)N[C@@H](CC(C)C)C(=O)N[C@@H](CCCNC(=N)N)C(=O)N[C@@H](CCCCN)C(=O)N[C@@H](CCCCN)C(=O)N[C@@H](CC(C)C)C(=O)N[C@@H](CCC(N)=O)C(=O)N[C@@H](CC(=O)O)C(=O)N[C@H](C(=O)N[C@@H](Cc1cnc[nH]1)C(=O)N[C@@H](CC(N)=O)C(=O)N[C@@H](Cc1ccccc1)C(N)=O)C(C)C)C(C)C | Non-Toxic
CC[C@H](C)[C@H](NC(=O)[C@H](CCC(=O)O)NC(=O)[C@H](CO)NC(=O)[C@@H](NC(=O)[C@H](CO)NC(C)=O)C(C)C)C(=O)N[C@@H](CCC(N)=O)C(=O)N[C@@H](CC(C)C)C(=O)N[C@@H](CCSC)C(=O)N[C@@H](Cc1cnc[nH]1)C(=O)N[C@@H](CC(N)=O)C(=O)N[C@@H](CC(C)C)C(=O)NCC(=O)N[C@@H](CCCCN)C(=O)N[C@@H](Cc1cnc[nH]1)C(=O)N[C@@H](CC(C)C)C(=O)N[C@@H](CC(N)=O)C(=O)N[C@@H](CO)C(=O)N[C@@H](CCSC)C(=O)N[C@@H](CCC(=O)O)C(=O)N[C@@H](CCCNC(=N)N)C(=O)N[C@H](C(=O)N[C@@H](CCC(=O)O)C(=O)N[C@@H](Cc1c[nH]c2ccccc12)C(=O)N[C@@H](CC(C)C)C(=O)N[C@@H](CCCNC(=N)N[C@@H]1O[C@H](CO)[C@H](O)[C@H](O)[C@H]1O)C(=O)N[C@@H](CCCCN)C(=O)N[C@@H](CCCCN)C(=O)N[C@@H](CC(C)C)C(=O)N[C@@H](CCC(N)=O)C(=O)N[C@@H](CC(=O)O)C(=O)N[C@H](C(=O)N[C@@H](Cc1cnc[nH]1)C(=O)N[C@@H](CC(N)=O)C(=O)N[C@@H](Cc1ccccc1)C(N)=O)C(C)C)C(C)C | Non-Toxic
CC[C@H](C)[C@H](NC(=O)[C@H](CCC(=O)O)NC(=O)[C@H](CO)NC(=O)[C@@H](NC(=O)[C@H](CO)NC(C)=O)C(C)C)C(=O)N[C@@H](CCC(N)=O)C(=O)N[C@@H](CC(C)C)C(=O)N[C@@H](CCSC)C(=O)N[C@@H](Cc1cnc[nH]1)C(=O)N[C@@H](CC(N)=O)C(=O)N[C@@H](CC(C)C)C(=O)NCC(=O)N[C@@H](CCCCN)C(=O)N[C@@H](Cc1cnc[nH]1)C(=O)N[C@@H](CC(C)C)C(=O)N[C@@H](CC(N)=O)C(=O)N[C@@H](CO)C(=O)N[C@@H](CCSC)C(=O)N[C@@H](CCC(=O)O)C(=O)N[C@@H](CCCNC(=N)N[C@@H]1O[C@H](CO)[C@@H](O)[C@H](O)[C@H]1NC(C)=O)C(=O)N[C@H](C(=O)N[C@@H](CCC(=O)O)C(=O)N[C@@H](Cc1c[nH]c2ccccc12)C(=O)N[C@@H](CC(C)C)C(=O)N[C@@H](CCCNC(=N)N[C@@H]1O[C@H](CO)[C@@H](O)[C@H](O)[C@H]1NC(C)=O)C(=O)N[C@@H](CCCCN)C(=O)N[C@@H](CCCCN)C(=O)N[C@@H](CC(C)C)C(=O)N[C@@H](CCC(N)=O)C(=O)N[C@@H](CC(=O)O)C(=O)N[C@H](C(=O)N[C@@H](Cc1cnc[nH]1)C(=O)N[C@@H](CC(N)=O)C(=O)N[C@@H](Cc1ccccc1)C(N)=O)C(C)C)C(C)C (Ac-SVSEIQLMHNLGKHLNSME[X3]VEWL[X3]KKLQDVHNF-NH2) | Non-Toxic
CC[C@H](C)[C@H](NC(=O)[C@H](CCC(=O)O)NC(=O)[C@H](CO)NC(=O)[C@@H](NC(=O)[C@H](CO)NC(C)=O)C(C)C)C(=O)N[C@@H](CCC(N)=O)C(=O)N[C@@H](CC(C)C)C(=O)N[C@@H](CCSC)C(=O)N[C@@H](Cc1cnc[nH]1)C(=O)N[C@@H](CC(N)=O)C(=O)N[C@@H](CC(C)C)C(=O)NCC(=O)N[C@@H](CCCCN)C(=O)N[C@@H](Cc1cnc[nH]1)C(=O)N[C@@H](CC(C)C)C(=O)N[C@@H](CC(N)=O)C(=O)N[C@@H](CO)C(=O)N[C@@H](CCSC)C(=O)N[C@@H](CCC(=O)O)C(=O)N[C@@H](CCCNC(=N)N[C@@H]1O[C@H](CO)[C@H](O)[C@H](O)[C@H]1O)C(=O)N[C@H](C(=O)N[C@@H](CCC(=O)O)C(=O)N[C@@H](Cc1c[nH]c2ccccc12)C(=O)N[C@@H](CC(C)C)C(=O)N[C@@H](CCCNC(=N)N[C@@H]1O[C@H](CO)[C@H](O)[C@H](O)[C@H]1O)C(=O)N[C@@H](CCCCN)C(=O)N[C@@H](CCCCN)C(=O)N[C@@H](CC(C)C)C(=O)N[C@@H](CCC(N)=O)C(=O)N[C@@H](CC(=O)O)C(=O)N[C@H](C(=O)N[C@@H](Cc1cnc[nH]1)C(=O)N[C@@H](CC(N)=O)C(=O)N[C@@H](Cc1ccccc1)C(N)=O)C(C)C)C(C)C (Ac-SVSEIQLMHNLGKHLNSME[X4]VEWL[X4]KKLQDVHNF-NH2) | Non-Toxic

Reference: ChEMBL document CHEMBL5537170, “Design, Synthesis, and Anti-Osteoporotic Characterization of Arginine N-Glycosylated Teriparatide Analogs via the Silver-catalyzed Solid-Phase Glycosylation Strategy” (J Med Chem, 2024)
